Reference: ChEMBL document CHEMBL3991601, “The target landscape of clinical kinase drugs” (Science, 2017)
Calls of active or inactive are those of the source. Cut-off read from the data, not from the text of the source, for most assays here: actives have a measured Kd and inactives only a lower limit.

Legend:
GTP-binding protein 4 = GTP-binding protein 4 (Homo sapiens, UniProt Q9BZE4)
[1] = target: T1, Dual specificity mitogen-activated protein kinase kinase 5 (Homo sapiens, UniProt Q13163)
T1 sequence (Q13163 whole entry): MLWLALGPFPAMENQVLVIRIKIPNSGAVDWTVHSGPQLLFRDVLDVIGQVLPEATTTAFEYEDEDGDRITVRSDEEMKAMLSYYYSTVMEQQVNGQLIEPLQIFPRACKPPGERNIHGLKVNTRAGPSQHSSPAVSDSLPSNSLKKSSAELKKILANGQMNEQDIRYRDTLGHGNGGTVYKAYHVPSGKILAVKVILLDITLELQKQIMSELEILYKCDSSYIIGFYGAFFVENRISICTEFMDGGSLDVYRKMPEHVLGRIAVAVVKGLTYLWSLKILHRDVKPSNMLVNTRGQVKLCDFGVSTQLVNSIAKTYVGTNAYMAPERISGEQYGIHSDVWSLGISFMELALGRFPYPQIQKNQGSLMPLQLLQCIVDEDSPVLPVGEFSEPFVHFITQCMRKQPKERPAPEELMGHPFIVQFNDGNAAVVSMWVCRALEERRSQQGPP

[2] = target: Mitogen-activated protein kinase 1 (Homo sapiens, UniProt P28482)
Sequence of Mitogen-activated protein kinase 1 (P28482 whole entry): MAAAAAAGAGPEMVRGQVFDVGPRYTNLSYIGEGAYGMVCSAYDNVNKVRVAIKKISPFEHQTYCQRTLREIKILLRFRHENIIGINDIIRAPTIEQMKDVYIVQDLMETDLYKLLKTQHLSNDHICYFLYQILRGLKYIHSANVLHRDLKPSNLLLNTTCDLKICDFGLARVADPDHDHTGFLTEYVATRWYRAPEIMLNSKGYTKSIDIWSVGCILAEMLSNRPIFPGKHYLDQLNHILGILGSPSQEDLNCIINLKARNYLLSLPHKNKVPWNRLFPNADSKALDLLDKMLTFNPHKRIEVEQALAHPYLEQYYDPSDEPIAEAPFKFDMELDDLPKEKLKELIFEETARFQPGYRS

[3] = target: T2, Beta-adrenergic receptor kinase 1 (Homo sapiens, UniProt P25098)
T2 sequence (P25098 whole entry): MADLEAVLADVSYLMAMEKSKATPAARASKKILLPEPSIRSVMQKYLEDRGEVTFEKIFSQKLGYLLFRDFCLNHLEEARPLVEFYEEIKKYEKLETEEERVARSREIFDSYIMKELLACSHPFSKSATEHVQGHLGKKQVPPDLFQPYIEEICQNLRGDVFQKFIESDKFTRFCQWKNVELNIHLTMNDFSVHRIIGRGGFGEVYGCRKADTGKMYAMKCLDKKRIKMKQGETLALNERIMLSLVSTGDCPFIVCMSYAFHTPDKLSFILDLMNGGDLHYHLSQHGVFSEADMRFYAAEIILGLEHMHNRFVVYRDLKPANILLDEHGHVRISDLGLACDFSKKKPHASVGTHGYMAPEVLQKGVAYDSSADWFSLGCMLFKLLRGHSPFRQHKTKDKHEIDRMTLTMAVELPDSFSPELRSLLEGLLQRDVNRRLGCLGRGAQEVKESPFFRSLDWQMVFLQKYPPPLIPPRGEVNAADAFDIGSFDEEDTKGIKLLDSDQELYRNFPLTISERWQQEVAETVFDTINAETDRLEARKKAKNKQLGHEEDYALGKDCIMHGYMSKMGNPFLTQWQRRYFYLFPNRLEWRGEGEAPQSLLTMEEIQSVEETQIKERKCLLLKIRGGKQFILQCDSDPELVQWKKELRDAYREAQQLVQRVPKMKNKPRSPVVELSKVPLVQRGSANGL

[4] = target: Tyrosine-protein kinase FRK (Homo sapiens, UniProt P42685)
Sequence of Tyrosine-protein kinase FRK (P42685 whole entry): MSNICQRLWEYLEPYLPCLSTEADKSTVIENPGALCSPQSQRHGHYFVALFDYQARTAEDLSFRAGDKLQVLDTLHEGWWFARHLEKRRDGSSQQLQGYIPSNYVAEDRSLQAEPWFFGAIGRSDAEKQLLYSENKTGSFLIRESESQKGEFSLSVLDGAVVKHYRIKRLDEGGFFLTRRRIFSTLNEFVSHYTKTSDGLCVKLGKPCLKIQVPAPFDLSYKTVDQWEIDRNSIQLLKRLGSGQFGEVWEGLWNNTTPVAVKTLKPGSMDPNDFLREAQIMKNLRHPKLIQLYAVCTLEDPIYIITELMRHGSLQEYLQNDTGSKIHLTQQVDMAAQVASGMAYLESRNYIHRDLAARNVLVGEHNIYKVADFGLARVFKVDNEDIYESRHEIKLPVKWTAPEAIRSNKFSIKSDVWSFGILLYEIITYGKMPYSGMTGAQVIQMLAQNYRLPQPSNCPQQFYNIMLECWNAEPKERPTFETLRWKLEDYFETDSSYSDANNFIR

[5] = target: Cyclin-dependent kinase 13 (Homo sapiens, UniProt Q14004)
Sequence of Cyclin-dependent kinase 13 (Q14004 whole entry): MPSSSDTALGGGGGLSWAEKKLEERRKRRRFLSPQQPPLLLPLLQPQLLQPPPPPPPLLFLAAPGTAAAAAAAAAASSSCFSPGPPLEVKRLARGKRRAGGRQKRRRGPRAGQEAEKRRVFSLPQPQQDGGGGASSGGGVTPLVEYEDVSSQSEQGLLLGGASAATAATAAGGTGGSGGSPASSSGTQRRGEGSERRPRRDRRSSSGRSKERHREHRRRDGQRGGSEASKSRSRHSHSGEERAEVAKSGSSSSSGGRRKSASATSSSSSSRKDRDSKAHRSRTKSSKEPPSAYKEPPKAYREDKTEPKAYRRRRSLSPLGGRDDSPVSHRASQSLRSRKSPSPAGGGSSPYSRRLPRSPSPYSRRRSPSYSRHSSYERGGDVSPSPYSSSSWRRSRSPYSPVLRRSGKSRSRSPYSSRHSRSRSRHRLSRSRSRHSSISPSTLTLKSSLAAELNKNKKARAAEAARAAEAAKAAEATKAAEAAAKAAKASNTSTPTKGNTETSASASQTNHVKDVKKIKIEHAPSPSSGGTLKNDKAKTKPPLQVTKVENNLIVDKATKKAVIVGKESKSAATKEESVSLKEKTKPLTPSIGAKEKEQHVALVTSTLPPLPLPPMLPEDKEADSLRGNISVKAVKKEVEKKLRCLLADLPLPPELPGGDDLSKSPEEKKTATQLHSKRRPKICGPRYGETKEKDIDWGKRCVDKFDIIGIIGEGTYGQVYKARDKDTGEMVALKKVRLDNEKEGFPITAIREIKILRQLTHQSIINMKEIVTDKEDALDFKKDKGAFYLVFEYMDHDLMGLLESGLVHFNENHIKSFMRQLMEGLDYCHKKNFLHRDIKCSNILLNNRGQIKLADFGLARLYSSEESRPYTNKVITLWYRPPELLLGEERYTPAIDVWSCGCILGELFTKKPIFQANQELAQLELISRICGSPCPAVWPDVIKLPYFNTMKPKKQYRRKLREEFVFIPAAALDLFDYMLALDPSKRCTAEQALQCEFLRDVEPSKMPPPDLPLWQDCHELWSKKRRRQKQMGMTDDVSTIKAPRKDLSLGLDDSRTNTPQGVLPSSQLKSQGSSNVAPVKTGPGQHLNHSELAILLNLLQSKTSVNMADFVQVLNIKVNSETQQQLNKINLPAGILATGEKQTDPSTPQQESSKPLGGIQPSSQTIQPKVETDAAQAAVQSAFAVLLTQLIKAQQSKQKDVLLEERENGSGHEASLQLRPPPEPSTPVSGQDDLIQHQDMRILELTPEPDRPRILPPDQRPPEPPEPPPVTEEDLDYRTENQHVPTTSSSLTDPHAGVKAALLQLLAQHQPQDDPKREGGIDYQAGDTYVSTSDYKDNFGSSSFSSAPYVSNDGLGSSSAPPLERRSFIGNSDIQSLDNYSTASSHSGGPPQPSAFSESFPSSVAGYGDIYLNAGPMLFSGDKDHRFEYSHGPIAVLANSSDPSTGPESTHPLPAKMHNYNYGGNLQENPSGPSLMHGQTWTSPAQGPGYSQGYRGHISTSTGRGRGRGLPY

[6] = target: T3, Phenylalanine--tRNA ligase beta subunit (Homo sapiens, UniProt Q9NSD9)
T3 sequence (Q9NSD9 whole entry): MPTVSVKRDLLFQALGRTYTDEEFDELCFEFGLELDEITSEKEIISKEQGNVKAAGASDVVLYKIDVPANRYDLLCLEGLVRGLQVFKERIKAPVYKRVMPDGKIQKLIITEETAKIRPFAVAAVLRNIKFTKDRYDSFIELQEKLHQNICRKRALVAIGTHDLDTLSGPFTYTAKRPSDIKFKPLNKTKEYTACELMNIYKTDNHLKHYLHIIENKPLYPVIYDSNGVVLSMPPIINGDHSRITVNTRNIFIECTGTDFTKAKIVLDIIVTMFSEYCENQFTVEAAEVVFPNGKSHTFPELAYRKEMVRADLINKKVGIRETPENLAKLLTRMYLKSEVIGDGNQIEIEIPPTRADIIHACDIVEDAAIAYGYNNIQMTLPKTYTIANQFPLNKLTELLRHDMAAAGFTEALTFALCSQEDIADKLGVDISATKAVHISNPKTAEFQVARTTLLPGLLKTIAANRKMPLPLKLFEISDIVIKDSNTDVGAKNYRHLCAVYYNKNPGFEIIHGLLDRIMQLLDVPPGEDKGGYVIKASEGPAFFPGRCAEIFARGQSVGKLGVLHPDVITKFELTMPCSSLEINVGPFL

[7] = target: T4, Calcium/calmodulin-dependent protein kinase type IV (Homo sapiens, UniProt Q16566)
T4 sequence (Q16566 whole entry): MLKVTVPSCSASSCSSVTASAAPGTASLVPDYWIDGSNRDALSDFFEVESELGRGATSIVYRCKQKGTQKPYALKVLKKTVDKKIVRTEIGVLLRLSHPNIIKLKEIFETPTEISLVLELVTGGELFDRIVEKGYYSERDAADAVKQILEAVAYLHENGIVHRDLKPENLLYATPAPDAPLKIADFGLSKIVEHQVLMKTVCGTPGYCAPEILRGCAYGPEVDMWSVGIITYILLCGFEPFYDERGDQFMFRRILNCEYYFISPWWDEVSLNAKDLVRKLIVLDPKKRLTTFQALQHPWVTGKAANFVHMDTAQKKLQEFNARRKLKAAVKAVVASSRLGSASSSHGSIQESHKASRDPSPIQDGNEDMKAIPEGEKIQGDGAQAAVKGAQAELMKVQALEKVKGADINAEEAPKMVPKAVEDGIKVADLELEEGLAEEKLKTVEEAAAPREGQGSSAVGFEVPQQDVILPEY

[8] = target: T5, EKC/KEOPS complex subunit TP53RK (Homo sapiens, UniProt Q96S44)
T5 sequence (Q96S44 whole entry): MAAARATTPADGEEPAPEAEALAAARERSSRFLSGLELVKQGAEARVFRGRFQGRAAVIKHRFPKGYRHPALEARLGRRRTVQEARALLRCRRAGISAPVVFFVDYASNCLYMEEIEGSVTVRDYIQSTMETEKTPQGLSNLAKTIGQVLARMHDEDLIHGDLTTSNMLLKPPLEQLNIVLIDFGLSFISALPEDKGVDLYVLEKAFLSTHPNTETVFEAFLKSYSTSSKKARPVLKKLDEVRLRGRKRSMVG
Note: in the data inactive means no Kd found up to 30 µM.

| Structure (SMILES) | Kd (GTP-binding protein 4) | Kd [1] | Kd [2] | Kd [3] | Kd [4] | Kd [5] | Kd [6] | Kd [7] | Kd [8] |
| --- | --- | --- | --- | --- | --- | --- | --- | --- | --- |
| CCc1cnn2c(NCc3ccc[n+]([O-])c3)cc(N3CCCC[C@H]3CCO)nc12 [DINACICLIB] | > 30 µM (inactive) | > 30 µM (inactive) | > 30 µM (inactive) | > 30 µM (inactive) | > 30 µM (inactive) | 0.021 µM (active) | > 30 µM (inactive) | > 30 µM (inactive) | > 30 µM (inactive) |
| Cn1ncc(Cl)c1-c1cc(C(=O)N[C@H](CN)Cc2cccc(F)c2)sc1Cl [AFURESERTIB] | > 30 µM (inactive) | > 30 µM (inactive) | > 30 µM (inactive) | > 30 µM (inactive) | > 30 µM (inactive) | > 30 µM (inactive) | > 30 µM (inactive) | > 30 µM (inactive) | > 30 µM (inactive) |
| CC[C@H](Nc1ncnc2[nH]cnc12)c1nc2cccc(F)c2c(=O)n1-c1ccccc1 [IDELALISIB] | > 30 µM (inactive) | > 30 µM (inactive) | > 30 µM (inactive) | > 30 µM (inactive) | > 30 µM (inactive) | > 30 µM (inactive) | > 30 µM (inactive) | > 30 µM (inactive) | > 30 µM (inactive) |
| O=C(O)[C@]1(Cc2cccc(Nc3nccs3)n2)CC[C@@H](Oc2cccc(Cl)c2F)CC1 [MK-5108] | > 30 µM (inactive) | > 30 µM (inactive) | > 30 µM (inactive) | > 30 µM (inactive) | 0.724 µM (active) | > 30 µM (inactive) | > 30 µM (inactive) | > 30 µM (inactive) | > 30 µM (inactive) |
| CN(C)C(=O)c1cc2cnc(Nc3ccc(N4CCNCC4)cn3)nc2n1C1CCCC1 [RIBOCICLIB] | > 30 µM (inactive) | > 30 µM (inactive) | > 30 µM (inactive) | > 30 µM (inactive) | > 30 µM (inactive) | > 30 µM (inactive) | > 30 µM (inactive) | > 30 µM (inactive) | > 30 µM (inactive) |
| C[C@@H]1CN(Cc2ccc(F)cc2)[C@@H](C)CN1C(=O)c1cc2c(C(=O)C(=O)N(C)C)cn(C)c2cc1Cl [TALMAPIMOD] | > 30 µM (inactive) | > 30 µM (inactive) | > 30 µM (inactive) | > 30 µM (inactive) | > 30 µM (inactive) | > 30 µM (inactive) | > 30 µM (inactive) | > 30 µM (inactive) | > 30 µM (inactive) |
| CC(C)Nc1cc(-c2c[nH]c(C(=O)N[C@H](CO)c3cccc(Cl)c3)c2)c(Cl)cn1 [ULIXERTINIB] | > 30 µM (inactive) | > 30 µM (inactive) |  | > 30 µM (inactive) | > 30 µM (inactive) | > 30 µM (inactive) | > 30 µM (inactive) | > 30 µM (inactive) | > 30 µM (inactive) |
| CN1CCN(c2ccc3nc(-c4c(N)c5c(F)cccc5[nH]c4=O)[nH]c3c2)CC1 [DOVITINIB] | > 30 µM (inactive) |  |  | > 30 µM (inactive) |  |  | > 30 µM (inactive) |  | > 30 µM (inactive) |
| Cc1cc(Nc2cc(N3CCN(C)CC3)nc(/C=C/c3ccccc3)n2)n[nH]1 [ENMD-2076] | > 30 µM (inactive) | > 30 µM (inactive) |  | > 30 µM (inactive) |  | > 30 µM (inactive) | > 30 µM (inactive) | > 30 µM (inactive) | > 30 µM (inactive) |
| CCn1c(=O)c(-c2cc[nH]n2)cc2c(C)nc(N)nc21 [VOXTALISIB] |  | > 30 µM (inactive) | > 30 µM (inactive) | > 30 µM (inactive) | > 30 µM (inactive) | > 30 µM (inactive) | > 30 µM (inactive) | > 30 µM (inactive) | > 30 µM (inactive) |
| N[C@@H]1CCCN(c2c(/C=C3\SC(=O)NC3=O)cccc2-c2ccccc2)C1 | > 30 µM (inactive) | > 30 µM (inactive) | > 30 µM (inactive) | > 30 µM (inactive) | > 30 µM (inactive) | > 30 µM (inactive) | > 30 µM (inactive) |  | > 30 µM (inactive) |
| CCn1c(-c2nonc2N)nc2c(C#CC(C)(C)O)ncc(OC[C@H]3CCCNC3)c21 [GSK-690693] |  |  |  | > 30 µM (inactive) |  |  | > 30 µM (inactive) |  | > 30 µM (inactive) |
| O=C(Nc1cccc(Cl)c1)Nc1ncc(CCNc2ncnc3ccsc23)s1 [SNS-314] | > 30 µM (inactive) | > 30 µM (inactive) |  |  |  |  | > 30 µM (inactive) | > 30 µM (inactive) | > 30 µM (inactive) |
| COc1cc2nccc(Oc3ccc(NC(=O)Nc4cc(C)on4)c(Cl)c3)c2cc1OC [TIVOZANIB] | > 30 µM (inactive) | > 30 µM (inactive) | > 30 µM (inactive) | > 30 µM (inactive) |  | > 30 µM (inactive) | > 30 µM (inactive) | > 30 µM (inactive) | > 30 µM (inactive) |
| C[C@@H](c1ccc2nccn2c1)n1nnc2ncc(-c3cnn(C)c3)nc21 [SAVOLITINIB] | > 30 µM (inactive) | > 30 µM (inactive) | > 30 µM (inactive) | > 30 µM (inactive) | > 30 µM (inactive) | > 30 µM (inactive) | > 30 µM (inactive) |  | > 30 µM (inactive) |
| Cc1cn(-c2cc(NC(=O)c3ccc(C)c(Nc4nccc(-c5cccnc5)n4)c3)cc(C(F)(F)F)c2)cn1 [NILOTINIB] | > 30 µM (inactive) |  |  | > 30 µM (inactive) |  |  | > 30 µM (inactive) |  | > 30 µM (inactive) |
| Nc1nc(N)c2nc(-c3cccc(O)c3)c(-c3cccc(O)c3)nc2n1 [TG100-115] | > 30 µM (inactive) |  |  | > 30 µM (inactive) |  |  | > 30 µM (inactive) |  | > 30 µM (inactive) |
| Cc1nc(N)sc1-c1ccnc(Nc2ccc(N3CCOCC3)cc2)n1 [CYC-116] | > 30 µM (inactive) | 1.48 µM (active) |  | > 30 µM (inactive) |  |  | > 30 µM (inactive) | > 30 µM (inactive) | > 30 µM (inactive) |
| C[C@@H](Nc1cc(F)cc(F)c1)c1cc(C(=O)N(C)C)cc2c(=O)cc(N3CCOCC3)oc12 [AZD-8186] |  | > 30 µM (inactive) | > 30 µM (inactive) | > 30 µM (inactive) | > 30 µM (inactive) | > 30 µM (inactive) | > 30 µM (inactive) | > 30 µM (inactive) | > 30 µM (inactive) |
